Reference: BigSolDB 2.1

NC(=O)c1ccccc1
solubility (mole fraction)
Conditions	283.15 K	288.15 K	293.15 K	298.15 K	303.15 K	308.15 K	313.15 K	318.15 K	323.15 K
in acetone	0.0508	0.0589	0.0703	0.0817	0.0948	0.107	0.126	0.149	0.174
in acetonitrile	0.0162	0.0196	0.0231	0.0278	0.0331	0.0385	0.046	0.0564	0.0712
in ethanol	0.0412	0.0479	0.0555	0.0648	0.0758	0.087	0.101	0.12	0.143
in ethyl acetate	0.0206	0.0234	0.0279	0.0334	0.0392	0.0455	0.0518	0.0613	0.0719
in isobutanol	0.0268	0.0289	0.0342	0.0416	0.0489	0.0569	0.0665	0.0786	0.0945
in isopropanol	0.0253	0.0314	0.0387	0.0473	0.0558	0.0642	0.0767	0.0893	0.111
in methanol	0.0599	0.0699	0.0804	0.0917	0.105	0.121	0.141	0.164	0.189
in methyl acetate	0.0236	0.0277	0.0334	0.0401	0.0476	0.0567	0.0662	0.0769	0.0927
in n-butanol	0.0308	0.036	0.0425	0.0509	0.0591	0.0682	0.0787	0.0933	0.109
in n-butyl acetate	0.0176	0.0192	0.0224	0.0264	0.0304	0.0349	0.0402	0.0451	0.0525
in n-propanol	0.0329	0.0398	0.0479	0.0561	0.0653	0.0753	0.0891	0.103	0.126
in water	0.00099	0.00128	0.0017	0.00212	0.00261	0.00306	0.00363	0.00438	0.00538
